Values quoted from earlier work, collected in patent publication US20240248099A1, “BIOMARKERS FOR AGE-RELATED MACULAR DEGENERATION” (BELITE BIO, LLC, priority 2021, published 2024).

Biological target: T1, RBP4 (Homo sapiens, UniProt P02753)
T1 construct: host or cells: serum of AMD patients (endogenous circulating protein)

CC1=C(/C=C/C(C)=C/C=C/C(C)=C/C(=O)Nc2ccc(O)cc2)C(C)(C)CCC1 [fenretinide]
incidence of choroidal neovascularization onset (246 AMD patients with only geographic atrophy, 100 mg or 300 mg fenretinide or placebo, 2 years, especially in the higher dose group): reduction in the incidence of choroidal neovascularization onset
growth rate of geographic atrophy, overall cohort (overall cohort, insufficient number of subjects achieving serum RBP4 less than 1 μM): no statistically significant retardation of the growth rate of geographic atrophy
rate of geographic atrophy progression versus serum RBP4 level (patients who achieved RBP4 levels below 1 μM (approximately 20 μg/ml) after fenretinide treatment): a lower serum RBP4 level was correlated with a slower rate of geographic atrophy progression
